Measurements: article PMC10096391, “Discovery of N,4-Di(1H-pyrazol-4-yl)pyrimidin-2-amine-Derived CDK2 Inhibitors as Potential Anticancer Agents: Design, Synthesis, and Evaluation” (Molecules, 2023)
pKi: −log10 of the molar value.

Tests used:
CDK1/cyclin B (CDK1B) = CDK1/cyclin B (CDK1B) (Homo sapiens, UniProt P06493); experiment: ADP-Glo kinase assay, CDK1/cyclin B; format: biochemical; conditions: for pKi: apparent Ki from IC50, ADP-Glo; for inhibition at 1 µM: read-out: % Enzymatic Inhibition at 1 µM CDK1B
Chain of CDK1/cyclin B (CDK1B) (P06493 whole entry): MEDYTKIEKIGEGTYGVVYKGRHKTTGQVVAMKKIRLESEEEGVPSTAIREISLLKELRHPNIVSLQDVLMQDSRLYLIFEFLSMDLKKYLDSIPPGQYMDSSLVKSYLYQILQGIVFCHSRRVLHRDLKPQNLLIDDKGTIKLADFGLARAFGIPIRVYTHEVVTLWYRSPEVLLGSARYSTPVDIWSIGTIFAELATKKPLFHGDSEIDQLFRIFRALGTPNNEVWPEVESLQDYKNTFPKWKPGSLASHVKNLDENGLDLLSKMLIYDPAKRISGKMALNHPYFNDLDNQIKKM
Chain of CDK1/cyclin B (CDK1B) (P14635 whole entry partner): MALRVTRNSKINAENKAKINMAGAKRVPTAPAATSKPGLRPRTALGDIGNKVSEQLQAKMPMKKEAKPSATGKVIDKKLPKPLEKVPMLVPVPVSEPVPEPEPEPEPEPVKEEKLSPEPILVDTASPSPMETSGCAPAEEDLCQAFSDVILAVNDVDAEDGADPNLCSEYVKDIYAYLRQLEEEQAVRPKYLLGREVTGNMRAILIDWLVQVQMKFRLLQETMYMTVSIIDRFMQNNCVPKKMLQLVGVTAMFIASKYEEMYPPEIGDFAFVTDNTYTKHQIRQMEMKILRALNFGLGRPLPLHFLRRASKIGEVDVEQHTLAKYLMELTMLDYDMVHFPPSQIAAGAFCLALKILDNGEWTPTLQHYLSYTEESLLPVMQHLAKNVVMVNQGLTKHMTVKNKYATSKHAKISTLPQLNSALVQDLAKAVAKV
Experimental: (§1) The luminescent ADP-Glo™ assay, which measures the amount of ADP formed in a kinase reaction as described previously, was used to determine the kinase inhibition profile of the compounds. […] Ki values were calculated from their corresponding IC50 values (the concentrations of inhibitors that inhibit the kinase activity by 50%) and the Michaelis–Menten constant (Km) of ATP for each kinase using the Cheng–Prusoff equation as previously stated. In brief, 1 μL of each concentration of the test compounds was added to the respective wells, and to it were added 1 μL of the kinases and their respective substrates, diluted to the desired concentration in kinase reaction buffer ([…] tris base pH 7.5, 20 mM MgCl2, 0.4 µM dithiothreitol, and 0.1 mg/mL bovine serum albumin), and the pH was adjusted by adding 1 μL of a two-fold diluted kinase reaction buffer. To initiate the kinase activity, 1 μL of ATP solution (the concentration varies depending on the type of kinase under investigation) was added to each well, and the mixture was incubated at room temperature (20 to 22 °C) for 30–60 min depending on the kinase being tested. The reaction was then halted, 5 μL of the ADP-Glo reagent was added to each well (removing any unreacted ATP), and it was incubated at room temperature for 40 min. Then, to each well, 10 μL of the kinase detection reagent containing luciferin was added, which was incubated once more at room temperature in the dark for 30 min and the luminescence was measured by an EnVision® multi-label plate reader with an integration time of 1.5 s per well. Positive controls (the wells without the inhibitor) and negative or blank controls (the wells without the inhibitor and the enzyme, but with 1 × kinase reaction buffer) were also determined in 2.5% DMSO.
(§2) The percentage of kinase inhibition was determined using the following equation: % Residual kinase activity=Luminescence in the presence of inhibitor−Luminescence of blank control/Luminescence in the absence of inhibitor−Luminescence of blank control×100%%kinase inhbition=100%−%Residual kinase activity
(§3) Km is defined as the concentration of ATP or the substrate required to produce 50% of the maximal reaction rate in the kinase reaction. Therefore, since we used the concentration of ATP and the substrate at their Km values, Ki simply equals IC50/2 assuming these inhibitors are ATP-competitive based on the Cheng–Prusoff equation: Ki = IC50/(1 + ([ATP]/Km(ATP))) where [ATP] is the ATP concentration used for the IC50 determination and Km(ATP) for each kinase was determined experimentally.

CDK9/cyclin T1 (CDK9T1) = CDK9/cyclin T1 (CDK9T1) (Homo sapiens, UniProt P50750); experiment: ADP-Glo kinase assay, CDK9/cyclin T1; format: biochemical; conditions: for pKi: apparent Ki from IC50, ADP-Glo; for inhibition at 1 µM: read-out: % Enzymatic Inhibition at 1 µM CDK9T1
Chain of CDK9/cyclin T1 (CDK9T1) (P50750 whole entry): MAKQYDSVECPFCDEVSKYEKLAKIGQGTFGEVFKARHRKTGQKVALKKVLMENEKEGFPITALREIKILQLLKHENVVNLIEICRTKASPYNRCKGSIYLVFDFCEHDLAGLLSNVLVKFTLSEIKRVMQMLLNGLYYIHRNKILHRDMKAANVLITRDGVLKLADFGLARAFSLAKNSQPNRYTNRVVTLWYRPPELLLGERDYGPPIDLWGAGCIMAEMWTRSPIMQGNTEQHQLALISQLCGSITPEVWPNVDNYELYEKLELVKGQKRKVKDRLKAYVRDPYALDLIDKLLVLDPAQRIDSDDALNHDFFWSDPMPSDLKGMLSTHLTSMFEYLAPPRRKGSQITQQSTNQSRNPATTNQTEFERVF
Chain of CDK9/cyclin T1 (CDK9T1) (O60563 whole entry partner): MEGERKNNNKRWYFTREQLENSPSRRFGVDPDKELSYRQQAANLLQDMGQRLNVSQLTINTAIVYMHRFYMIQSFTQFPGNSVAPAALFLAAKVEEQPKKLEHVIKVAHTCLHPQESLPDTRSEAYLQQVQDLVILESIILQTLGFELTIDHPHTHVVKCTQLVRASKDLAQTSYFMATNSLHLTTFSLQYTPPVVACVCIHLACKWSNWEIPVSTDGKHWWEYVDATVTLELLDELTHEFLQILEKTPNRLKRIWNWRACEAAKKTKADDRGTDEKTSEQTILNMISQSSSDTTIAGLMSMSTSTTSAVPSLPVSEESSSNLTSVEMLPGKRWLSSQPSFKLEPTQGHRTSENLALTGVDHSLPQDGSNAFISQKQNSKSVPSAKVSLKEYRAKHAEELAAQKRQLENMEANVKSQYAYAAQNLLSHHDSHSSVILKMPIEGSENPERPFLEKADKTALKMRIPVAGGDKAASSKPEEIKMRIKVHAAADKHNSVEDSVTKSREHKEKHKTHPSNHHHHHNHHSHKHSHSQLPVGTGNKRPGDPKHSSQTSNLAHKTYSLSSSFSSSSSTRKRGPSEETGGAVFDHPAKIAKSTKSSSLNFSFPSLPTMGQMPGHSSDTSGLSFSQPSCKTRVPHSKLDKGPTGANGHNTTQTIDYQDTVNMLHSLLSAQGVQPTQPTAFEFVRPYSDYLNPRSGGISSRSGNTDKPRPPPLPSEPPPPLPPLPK
Experimental: as §1, with “Then, to each well, 10 μL of the kinase detection reagent containing luciferin was added, which was incubated once more at room temperature in the dark for 30 min and the luminescence was measured by an EnVision® multi-label plate reader with an integration time of 1.5 s per well.” left out
as §2, §3

CDK5/p25 (CDK5p25) = CDK5/p25 (CDK5p25) (Homo sapiens, UniProt Q00535); experiment: ADP-Glo kinase assay, CDK5/p25; format: biochemical; conditions: for pKi: apparent Ki from IC50, ADP-Glo; for inhibition at 1 µM: read-out: % Enzymatic Inhibition at 1 µM CDK5p25
Chain of CDK5/p25 (CDK5p25) (Q00535 whole entry): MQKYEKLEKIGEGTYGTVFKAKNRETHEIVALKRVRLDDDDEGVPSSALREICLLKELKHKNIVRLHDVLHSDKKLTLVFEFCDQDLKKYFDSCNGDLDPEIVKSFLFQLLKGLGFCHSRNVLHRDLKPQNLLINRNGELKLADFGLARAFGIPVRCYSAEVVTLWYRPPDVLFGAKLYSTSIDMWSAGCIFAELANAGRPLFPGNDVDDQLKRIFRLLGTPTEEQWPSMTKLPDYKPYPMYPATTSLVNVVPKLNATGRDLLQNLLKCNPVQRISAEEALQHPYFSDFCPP
Chain of CDK5/p25 (CDK5p25) (Q15078 99-307 partner limits assumed): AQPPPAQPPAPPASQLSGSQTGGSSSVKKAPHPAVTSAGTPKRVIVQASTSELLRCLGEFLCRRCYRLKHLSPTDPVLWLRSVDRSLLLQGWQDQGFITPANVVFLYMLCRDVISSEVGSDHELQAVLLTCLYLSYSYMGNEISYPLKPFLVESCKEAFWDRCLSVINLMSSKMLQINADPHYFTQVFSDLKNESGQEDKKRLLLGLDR
Experimental: as §1, with “Then, to each well, 10 μL of the kinase detection reagent containing luciferin was added, which was incubated once more at room temperature in the dark for 30 min and the luminescence was measured by an EnVision® multi-label plate reader with an integration time of 1.5 s per well.” left out
as §2, §3

[1] = tested on: A2780 ovarian cancer cells; experiment: 72 h MTT antiproliferative assay, A2780; format: cell-based; conditions: for GI50 / inhibition at 1 µM: Homo sapiens, A2780, 72 h MTT; for inhibition at 1 µM: read-out: % Growth Inhibition (GI) at 1 µM A2780
Text: Cancer cell lines derived from leukemia (MV4-11 and U937), breast (MCF7 (Rb-positive) and MDA-MB-231(Rb-negative)), and ovarian (A2780, OVCAR5, OAW28, OV90, Cov318, and Cov504) cancers, and glioblastoma (U87, T98G and U251) were acquired from the cell bank at Drug Discovery and Development, University of South Australia, and cultured according to the American Type Culture Collection (ATCC) recommendation in Roswell Park Memorial Institute (RPMI)-1640, Dulbecco’s Modified Eagle’s Medium (DMEM), or Minimum Essential Media (MEM), with 10% fetal bovine serum (Sigma-Aldrich, Castle Hill, NSW, Australia) within a humidified incubator at 37 °C in the presence of 5% CO2.
The MTT (Life Technologies, Mulgrave, VIC, Australia) and resazurin (Sigma-Aldrich) assays were used to determine the antiproliferative activities of the compounds initially at 1 µM against the cancer cell lines stated above.

CDK2/cyclin E (CDK2E) = CDK2/cyclin E (CDK2E) (Homo sapiens, UniProt P24941); experiment: ADP-Glo kinase assay, CDK2/cyclin E; format: biochemical; conditions: for pKi: apparent Ki from IC50, ADP-Glo; for inhibition at 1 µM: read-out: % Enzymatic Inhibition at 1 µM CDK2E
Experimental: as §1, §2, §3

Row | pKi (CDK1/cyclin B (CDK1B)) | pKi (CDK9/cyclin T1 (CDK9T1)) | pKi (CDK5/p25 (CDK5p25)) | GI50 [1] [nM] | pKi (CDK2/cyclin E (CDK2E)) | inhibition at 1 µM (CDK2/cyclin E (CDK2E)) [%] | inhibition at 1 µM (CDK9/cyclin T1 (CDK9T1)) [%] | inhibition at 1 µM (CDK1/cyclin B (CDK1B)) [%] | fold reduced CDK2 inhibition compared to 15 (CDK2/cyclin E (CDK2E); versus 15, Ki ratio) [fold] | inhibition at 1 µM (CDK5/p25 (CDK5p25)) [%] | Structure (SMILES) | fold lower antiproliferative activity against A2780 compared to 1 ([1]; versus 1) | inhibition at 1 µM [1] [%] | fold less potent antiproliferative activity against A2780 than 15 ([1]; versus 15, GI50 ratio) [fold]
1 | 7.74 | 7.80 | 8.52 | 498 | 8.15 | – | – | – | – | – | Cn1cc(-c2nc(Nc3cn[nH]c3)ncc2F)cn1 [Compound 14, 5-Fluoro-4-(1-methyl-1H-pyrazol-4-yl)-N-(1H-pyrazol-4-yl)pyrimidin-2-amine] | about 28 fold | – | –
2 | 7.04 | 7.01 | 7.74 | – | 7.64 | 97 | – | – | – | – | Cn1cc(Nc2ncc(F)c(-c3cnn(C)c3)n2)cn1 [Compound 16, 5-Fluoro-N,4-bis(1-methyl-1H-pyrazol-4-yl)pyrimidin-2-amine] | – | 9 | –
3 | 7.47 | – | – | 1020 | 7.96 | – | – | – | – | – | Cn1cc(Nc2ncc(Cl)c(-c3cnn(C)c3)n2)cn1 [Compound 17, 5-Chloro-N,4-bis(1-methyl-1H-pyrazol-4-yl)pyrimidin-2-amine] | – | 87 | –
4 | 6.95 | – | 6.71 | – | 7.07 | – | 68 | – | – | – | Cn1cc(-c2nc(Nc3cnn(CC(N)=O)c3)ncc2F)cn1 [Compound 18, 2-(4-((5-Fluoro-4-(1-methyl-1H-pyrazol-4-yl)pyrimidin-2-yl)amino)-1H-pyrazol-1-yl)acetamide] | – | 0 | –
5 | 7.74 | 7.00 | 7.28 | – | 7.60 | – | – | – | – | – | Cn1cc(-c2nc(Nc3cnn(CC(N)=O)c3)ncc2Cl)cn1 [Compound 19, 2-(4-((5-Chloro-4-(1-methyl-1H-pyrazol-4-yl)pyrimidin-2-yl)amino)-1H-pyrazol-1-yl)acetamide] | – | 44 | –
6 | 6.79 | 6.46 | 7.74 | – | 7.59 | – | – | – | – | – | Cc1nn(C)cc1-c1nc(Nc2cnn(C)c2)ncc1F [Compound 20, 4-(1,3-Dimethyl-1H-pyrazol-4-yl)-5-fluoro-N-(1-methyl-1H-pyrazol-4-yl)pyrimidin-2-amine] | – | 7 | –
7 | 6.65 | 7.21 | 7.46 | – | 7.64 | – | – | – | – | – | Cc1nn(C)cc1-c1nc(Nc2cnn(C)c2)ncc1Cl [Compound 21, 5-Chloro-4-(1,3-dimethyl-1H-pyrazol-4-yl)-N-(1-methyl-1H-pyrazol-4-yl)pyrimidin-2-amine] | – | 8 | –
8 | – | – | 7.40 | 7350 | 7.05 | – | 40 | 9 | 18 | – | Cn1cc(-c2nc(Nc3ccn[nH]3)ncc2Cl)cn1 [Compound 23, 5-Chloro-4-(1-methyl-1H-pyrazol-4-yl)-N-(1H-pyrazol-5-yl)pyrimidin-2-amine] | – | – | 47
9 | – | – | 6.75 | – | – | 46 | 31 | 31 | – | – | Cn1cc(-c2nc(Nc3nccs3)ncc2Cl)cn1 [Compound 25, N-(5-Chloro-4-(1-methyl-1H-pyrazol-4-yl)pyrimidin-2-yl)thiazol-2-amine] | – | 9 | –
10 | – | – | – | – | – | 48 | 24 | 26 | – | 43 | Cn1cc(Nc2ncc(F)c(-c3cnn(CCN4CCOCC4)c3)n2)cn1 [Compound 31, 5-Fluoro-N-(1-methyl-1H-pyrazol-4-yl)-4-(1-(2-morpholinoethyl)-1H-pyrazol-4-yl)pyrimidin-2-amine] | – | 0 | –
11 | – | – | 6.90 | – | 6.60 | – | 21 | 36 | – | – | Cn1cc(Nc2ncc(Cl)c(-c3cnn(CCN4CCOCC4)c3)n2)cn1 [Compound 32, 5-Chloro-N-(1-methyl-1H-pyrazol-4-yl)-4-(1-(2-morpholinoethyl)-1H-pyrazol-4-yl)pyrimidin-2-amine] | – | 3 | –
12 | – | – | – | – | – | 64 | 45 | 49 | – | 58 | Cn1cc(Nc2ncc(F)c(-c3ccnn3C)n2)cn1 [Compound 35, 5-Fluoro-N-(1-methyl-1H-pyrazol-4-yl)-4-(1-methyl-1H-pyrazol-5-yl)pyrimidin-2-amine] | – | 19 | –
